Results published in a flash point compilation (Sun et al. 2020).
Counter-ions that a name gives are not always drawn.

| Compound | flash point [°C] |
| --- | --- |
| CCC1CCC(CCC(=O)[O-])C1.CCC1CCC(CCC(=O)[O-])CC1.[Cu+2] (stereo not drawn) | 38.00 |
| CS [methanethiol] | -18.00 |
| O=C=Nc1ccc(Cl)cc1 [1-chloro-4-isocyanatobenzene] | 110.00 |
| C1=CCCC=C1 [cyclohexa-1,3-diene] | 26.00 |
| C/C=C/c1ccccc1 [[(E)-prop-1-enyl]benzene] | 52.00 |
| CCSC(=O)Cl [S-ethyl chloromethanethioate] | 31.00 |
| CCc1ccc(O)cc1 [4-ethylphenol] | 104.00 |
| COc1cc(Cl)c(OC)cc1Cl [1,4-dichloro-2,5-dimethoxybenzene] | 161.00 |
| CCCCCCCCCCCCc1ccccc1 [dodecylbenzene] | 135.00 |
| CCCCOC(=O)c1ccccc1C(=O)OCCCC [dibutyl benzene-1,2-dicarboxylate] | 157.00 |
| Oc1cccc(O)c1 [benzene-1,3-diol] | 127.00 |
| C=CC(=O)OCCCCCCCC [octyl prop-2-enoate] | 82.00 |
| Oc1ccc(Cl)cc1Cl [2,4-dichlorophenol] | 114.00 |
| CC(=O)Nc1ccccc1 [N-phenylacetamide] | 174.00 |
| C[Si](C)(C)N[Si](C)(C)C [[dimethyl-(trimethylsilylamino)silyl]methane] | 9.00 |
| CCOc1ccc(N)cc1 [4-ethoxyaniline] | 116.00 |
| C[CH2][Al]([CH2]C)[CH2]C [triethylalumane] | -53.00 |
| C=CC(F)(F)C(F)(F)C(F)(F)C(F)(F)F [3,3,4,4,5,5,6,6,6-nonafluorohex-1-ene] | -17.00 |
| C=CCCCCC [hept-1-ene] | -4.00 |
| Cc1cccc(C)c1[N+](=O)[O-] [1,3-dimethyl-2-nitrobenzene] | 88.00 |
| c1nc[nH]n1 [1H-1,2,4-triazole] | 170.00 |
| C[Si](C)(C)C [tetramethylsilane] | -27.00 |
| C1COCOC1 [1,3-dioxane] | 2.00 |
| C=C1C(CCl)(CCl)C2(Cl)C(Cl)C(Cl)C1(Cl)C2(Cl)Cl (stereo not drawn) | 29.00 |
| Cc1ccc([N+](=O)[O-])c(C)c1 [2,4-dimethyl-1-nitrobenzene] | 107.00 |
| COc1ccc(C(=O)c2ccccc2)c(O)c1 [(2-hydroxy-4-methoxyphenyl)-phenylmethanone] | 100.00 |

| Compound | flash point [°C] |
| --- | --- |
| Cc1cc(O)c(C(C)(C)C)cc1Sc1cc(C(C)(C)C)c(O)cc1C | 216.00 |
| COC(=O)c1ccccc1O [methyl 2-hydroxybenzoate] | 96.00 |
| CC(=O)NCCO [N-(2-hydroxyethyl)acetamide] | 177.00 |
| CCCCCCCC/C=C\CCCCCCCC(=O)OCCCC [butyl (Z)-octadec-9-enoate] | 180.00 |
| CCO[Si](CCCN)(OCC)OCC [3-triethoxysilylpropan-1-amine] | 98.00 |
| C=CC(=C)C [2-methylbuta-1,3-diene] | -54.00 |
| O=[N+]([O-])c1ccc(Nc2ccccc2)cc1 [4-nitro-N-phenylaniline] | 190.00 |
| CC1CCC(=O)O1 (stereo not drawn) [5-methyloxolan-2-one] | 81.00 |
| C=CCOC(=O)CC(C)C [prop-2-enyl 3-methylbutanoate] | 39.00 |
| c1ccc(P(c2ccccc2)c2ccccc2)cc1 [triphenylphosphane] | 180.00 |
| CCCCCCCCCCS [decane-1-thiol] | 98.00 |
| ClCC(Br)CBr (stereo not drawn) [1,2-dibromo-3-chloropropane] | 77.00 |
| CCC(=O)O [propanoic acid] | 54.00 |
| ClC(Cl)(Cl)c1ccccc1 [trichloromethylbenzene] | 127.00 |
| COCC(C)OC(C)=O (stereo not drawn) [1-methoxypropan-2-yl acetate] | 46.00 |
| C1=Cc2ccccc2C1 [1H-indene] | 78.00 |
| CC(=O)[O][Hg][c]1ccccc1 [acetyloxy(phenyl)mercury] | 60.00 |
| CC(C)C(=O)OCC(C)(C)C(OC(=O)C(C)C)C(C)C (stereo not drawn) | 121.00 |
| Cc1ccccc1Cl [1-chloro-2-methylbenzene] | 52.00 |
| CNc1ccccc1C(=O)OC [methyl 2-(methylamino)benzoate] | 91.00 |
| CCCCC(CC)CN (stereo not drawn) [2-ethylhexan-1-amine] | 60.00 |
| C=CC(=O)OC [methyl prop-2-enoate] | 7.00 |
| CCCCC[Si](Cl)(Cl)Cl [trichloro(pentyl)silane] | 63.00 |
| O=C(OCc1ccccc1)c1ccccc1 [benzyl benzoate] | 148.00 |
| O=C1OC(=O)c2cccc3cccc1c23 | 272.00 |
| S=C([S-])NCCNC(=S)[S-].S=C([S-])NCCNC(=S)[S-].[Mn+2].[Zn+2] | 138.00 |

| Compound | flash point [°C] |
| --- | --- |
| O=C1OCCO1 [1,3-dioxolan-2-one] | 143.00 |
| CC(C)[C@H](C(=O)O[C@H](C#N)c1cccc(Oc2ccccc2)c1)c1ccc(Cl)cc1 | 256.00 |
| Cc1c(COC(=O)C2C(C=C(Cl)C(F)(F)F)C2(C)C)cccc1-c1ccccc1 (stereo not drawn) | 165.00 |
| Cc1ccc(S(N)(=O)=O)cc1 [4-methylbenzenesulfonamide] | 202.00 |
| CCC[N+](=O)[O-] [1-nitropropane] | 34.00 |
| CC1CCCCN1CCCOC(=O)c1ccc(Cl)c(Cl)c1 (stereo not drawn) [3-(2-methylpiperidin-1-yl)propyl 3,4-dichlorobenzoate] | 71.00 |
| Cc1ccc(O)cc1 [4-methylphenol] | 86.00 |
| COc1cc(CNC(=O)CCCC/C=C/C(C)C)ccc1O | 113.00 |
| CCCC(C)C=O (stereo not drawn) [2-methylpentanal] | 20.00 |
| O=C(Nc1cccc(Cl)c1)OCC#CCCl [4-chlorobut-2-ynyl N-(3-chlorophenyl)carbamate] | 50.00 |
| CCCCC(C=O)CC (stereo not drawn) [2-ethylhexanal] | 52.00 |
| CCCC(O)C(CC)CO (stereo not drawn) [2-ethylhexane-1,3-diol] | 127.00 |
| CCCCC(CC)COCC1CO1 (stereo not drawn) [2-(2-ethylhexoxymethyl)oxirane] | 97.00 |
| CCOC=O [ethyl formate] | -20.00 |
| O=Cc1ccccc1Cl [2-chlorobenzaldehyde] | 88.00 |
| O=C1C=CC(=O)O1 [furan-2,5-dione] | 103.00 |
| O=C(O)CCCCCCCCC(=O)O [decanedioic acid] | 220.00 |
| CC(C)=CC(=O)C=C(C)C [2,6-dimethylhepta-2,5-dien-4-one] | 85.00 |
| CCCCCC(=O)OC [methyl hexanoate] | 73.00 |
| C=CC(=O)OCCOCCOC(=O)C=C [2-(2-prop-2-enoyloxyethoxy)ethyl prop-2-enoate] | 78.00 |
| CC(C)C#N [2-methylpropanenitrile] | 8.00 |
| CC(C)NC(C)C [N-propan-2-ylpropan-2-amine] | -1.00 |
| CC(N)CO (stereo not drawn) [2-aminopropan-1-ol] | 63.00 |
| O=CC=O [oxaldehyde] | 220.00 |
| C=C(C)C(=O)OCCOC(=O)C(=C)C [2-(2-methylprop-2-enoyloxy)ethyl 2-methylprop-2-enoate] | 101.00 |
| ClC1CCCCC1 [chlorocyclohexane] | 32.00 |

| Compound | flash point [°C] |
| --- | --- |
| C=CC(=C)CCC=C(C)C [7-methyl-3-methylideneocta-1,6-diene] | 39.00 |
| CCCCCCCCCCCCCCCCS [hexadecane-1-thiol] | 102.00 |
| COc1ccccc1[N+](=O)[O-] [1-methoxy-2-nitrobenzene] | 142.00 |
| CCOC(=O)Cc1ccccc1 [ethyl 2-phenylacetate] | 99.00 |
| COCCOC(C)=O [2-methoxyethyl acetate] | 44.00 |
| NNC(=O)c1ccncc1 [pyridine-4-carbohydrazide] | 190.00 |
| CN(C)CCCN [N',N'-dimethylpropane-1,3-diamine] | 16.00 |
| O=C(OCCOCCOC(=O)c1ccccc1)c1ccccc1 [2-(2-benzoyloxyethoxy)ethyl benzoate] | 232.00 |
| CC(C)(N)CO [2-amino-2-methylpropan-1-ol] | 67.00 |
| O=C1CCCO1 [oxolan-2-one] | 98.00 |
| C=O.O=C=Nc1ccccc1 [formaldehyde;isocyanatobenzene] | 218.00 |
| CCI [iodoethane] | 61.00 |
| CCCCCCCCCCCCCCCCCCS [octadecane-1-thiol] | 185.00 |
| CCN(C(=O)N(CC)c1ccccc1)c1ccccc1 [1,3-diethyl-1,3-diphenylurea] | 150.00 |
| C=CCCCCCC [oct-1-ene] | 21.00 |
| CCCCCSCCCCC [1-pentylsulfanylpentane] | 85.00 |
| CC1(C)[C@@H]2CC[C@@]1(C)C(=O)C2 [(1R,4R)-1,7,7-trimethylbicyclo[2.2.1]heptan-2-one] | 47.00 |
| CCCCC(Cl)Cl [1,1-dichloropentane] | 41.00 |
| C1CCC2CCCCC2C1 (stereo not drawn) [1,2,3,4,4a,5,6,7,8,8a-decahydronaphthalene] | 57.00 |
| NCc1ccco1 [furan-2-ylmethanamine] | 37.00 |
| c1ccc2ccccc2c1 [naphthalene] | 88.00 |
| Cc1ccc(S(=O)(=O)O)cc1 [4-methylbenzenesulfonic acid] | 184.00 |
| CCCCCCCCC(=O)O [nonanoic acid] | 133.00 |
| CC(O)CN (stereo not drawn) [1-aminopropan-2-ol] | 77.00 |
| CC1=C(C(=O)Nc2ccccc2)S(=O)(=O)CCO1 | 219.00 |
